{"source": "patent US9623023B2", "about": "“Class of non-stimulant treatment and ADHD and related disorders” (The Florida State University Research Foundation, …, priority 2012, dated 2017)", "key": {"PNE mice [1]": {"tested_on": "PNE mice", "assay": "Locomotor activity (hyperactivity) in prenatal nicotine exposure (PNE) mouse model", "type": "in vivo", "conditions": "oral"}, "PNE mice [2]": {"tested_on": "PNE mice", "conditions": "active phase (lights off), Zhu 2012; cited from earlier work"}, "PFC dopamine turnover": {"tested_on": "PFC dopamine turnover", "conditions": "PNE mice; MPH administration; Zhu 2012; cited from earlier work"}, "[3]": {"tested_on": "hyperactivity in children", "conditions": "oral, dose range 0.5-2 mg/kg; previous reports; cited from earlier work"}, "[4]": {"conditions": "long-term usage; Recant 1980; cited from earlier work"}, "SHR rats": {"tested_on": "SHR rats", "assay": "Locomotor activity (hyperactivity) in spontaneously hypertensive rat (SHR) ADHD model", "type": "in vivo", "protocol": "(§1) Spontaneously hypertensive rat (SHR) as an ADHD model. The SHR is a spontaneously occurring mutation associated with hypertension. […] Thus, both the SHR and the PNE mouse model show hyperactivity and increased frontal cortical KOPR activity. The selective KOPR antagonist, nor-BNI (10 mg/kg, i.p.) or the saline vehicle were administered to 60-day old SHR and WKY control rats (Sagvolden et al., 2009 (Reference 56)) at 17:00 hr and locomotor activity measured at hourly intervals over the next 19 hr (FIGS. 4 and 5). […] Since the hyperactivity in the SHR rat was evident during the lights off period from 19:00 hr to 7:00 hr, activity was compared during the lights off period between SHR rats receiving nor-BNI and those receiving saline.\nThe long-lasting effects of nor-BNI in the SHR is consistent with previous reports that the desensitization of the KOPR produced by nor-BNI lasts for up to 21 days (Metcalf and Coop, 2005 (Reference 43); Patkar et al., 2013 (Reference 48))."}, "WKY control rats": {"tested_on": "WKY control rats", "assay": "Locomotor activity in WKY control rats", "type": "in vivo, rat", "conditions": "10 mg/kg i.p.", "protocol": "as §1"}, "KOPR": {"tested_on": "KOPR", "conditions": "previous reports (Metcalf and Coop 2005; Patkar 2013); cited from earlier work"}}, "note": "“Also recorded” adds a separate entry of the source."}
{"smiles": "COC(=O)C(c1ccccc1)C1CCCCN1", "note": "(stereo not drawn) [MPH, methylphenidate]", "values": [{"measurement": "locomotor activity", "setting": "PNE mice [1]; PNE mice, MPH 0.75 mg/kg, FIG. 2 graph 204", "value": "significantly decreased locomotor activity"}, {"measurement": "locomotor activity after single oral administration", "setting": "PNE mice [2]", "value": "reduces the activity to the levels seen in drug naïve control mice"}, {"measurement": "PFC dopamine turnover", "setting": "PFC dopamine turnover", "value": "increases PFC dopamine turnover"}]}
{"smiles": "O=C1CC[C@@]2(O)[C@H]3Cc4ccc(O)c5c4[C@@]2(CCN3CC2CC2)[C@H]1O5", "note": "[naltrexone]", "values": [{"measurement": "locomotor activity compared to vehicle", "setting": "PNE mice [1]; P60 male PNE mice, naltrexone 1 mg/kg, at 19:00 hrs, FIG. 2 graph 202", "value": "significantly reduces locomotor activity; also recorded: reduces hyperactivity in PNE mice in a manner comparable to that of methylphenidate"}, {"measurement": "hyperactivity in children", "setting": "[3]", "value": "effective in reducing hyperactivity"}, {"measurement": "weight gain", "setting": "[4]", "value": "reduced weight gain"}]}
{"smiles": "Oc1ccc2c3c1O[C@H]1c4[nH]c5c(c4C[C@@]4(O)[C@@H](C2)N(CC2CC2)CC[C@]314)C[C@@]1(O)[C@H]2Cc3ccc(O)c4c3[C@@]1(CCN2CC1CC1)[C@H]5O4", "note": "[nor-BNI, nor-binaltorphimine]", "values": [{"measurement": "locomotor activity during lights off period (Mean±SEM beam breaks)", "setting": "SHR rats; 60-day old SHR, 10 mg/kg i.p. at 17:00 hr, lights off 19:00-7:00 hr, saline=4830.75±609.2, p=0.04", "value": "2743.25±945.8", "unit": "beam breaks"}, {"measurement": "effect on locomotor activity compared to saline", "setting": "SHR rats; SHR, 10 mg/kg i.p., FIG. 4", "value": "reduced the locomotor activity"}, {"measurement": "period over which decrease in hyperactivity was observed", "setting": "SHR rats; SHR, single i.p. injection 10 mg/kg", "value": 21, "unit": "days"}, {"measurement": "locomotor activity during lights off period (Mean±SEM beam breaks)", "setting": "WKY control rats; 60-day old WKY control rats, saline=2604.5±608.1, p>0.05", "value": "2494.75±831.6", "unit": "beam breaks"}, {"measurement": "effect on locomotor activity", "setting": "WKY control rats; WKY control rats, FIG. 5", "value": "did not affect locomotor activity"}, {"measurement": "duration of desensitization of the KOPR", "setting": "KOPR", "value": "up to 21 days"}]}
